Data: article PMC7288112 (Molecules, 2020)

Target: Rv1466 (Mycobacterium tuberculosis, UniProt O53157)
Assay: biochemical
Format: binding

Chain of Rv1466 (O53157 entry or part of it): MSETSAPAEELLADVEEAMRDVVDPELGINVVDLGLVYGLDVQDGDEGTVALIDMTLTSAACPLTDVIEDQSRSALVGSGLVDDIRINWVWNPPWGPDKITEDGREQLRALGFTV

Compound: O=C1C=C[C@@H]2O[C@H](c3ccccc3)[C@@H](O)[C@@H]2O1 [altholactone]
- Kd: 42 ± 6.1 µM
